Assay results reported in PubChem BioAssay AID1648 (Sanford-Burnham Center for Chemical Genomics, 2009).
Activity calls are given as the source filed them. No rule for the calls is given here.

molecular target: Serine/threonine-protein kinase mTOR (Homo sapiens) (UniProt P42345); experiment: binders of mTOR FRB domain, biophysical, NMR (AID 1648); conditions: NMR binding to FRB domain, chemical shift
Sequence (P42345 2015-2114): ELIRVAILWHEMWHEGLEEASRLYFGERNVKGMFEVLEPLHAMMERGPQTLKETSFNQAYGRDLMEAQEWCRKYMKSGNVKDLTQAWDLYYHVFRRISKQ

Row | SMILES | Kd
1 | Cc1cc(C)cc(C(=O)n2cnnc2N)c1 | > 4 mM (inactive)
2 | Cc1nc2ccccc2c(=O)n1NC(=O)C1CCCCC1 | > 4 mM (inactive)
3 | CC(C)NS(=O)(=O)c1ccc(N)cc1 | > 4 mM (inactive)
4 | CC1=CC2C(CC1=O)C(C)=CCC2C(C)C (centres undefined) | > 4 mM (inactive)
5 | O=C1Nc2ccccc2C12OCCO2 | > 4 mM (inactive)
6 | CC1(C)Cc2c(c(-c3ccco3)[nH]c(=O)c2C#N)CO1 | > 4 mM (inactive)
7 | Nc1nc(NCc2ccco2)nn1-c1ccccc1 | > 4 mM (inactive)
8 | NC(=O)c1ccc(N2C(=O)C=CC2=O)cc1Cl | > 4 mM (inactive)
9 | NC(=O)CSc1ccc2nnc(-c3cccs3)n2n1 | > 4 mM (inactive)
10 | CC(=O)OC[C@H]1O[C@@H](Oc2cc(OC(C)=O)c3c(=O)cc(-c4ccc(OC(C)=O)cc4)oc3c2)[C@H](OC(C)=O)[C@@H](OC(C)=O)[C@@H]1OC(C)=O | > 4 mM (inactive)
11 | Nc1cc(=O)[nH]c(=S)n1CCc1ccccc1 | > 4 mM (inactive)
12 | COCC(=O)Nc1nc2ccc(C)cc2s1 | > 4 mM (inactive)
13 | CC(=O)c1c(C)nc2ccccc2c1N | > 4 mM (inactive)
14 | O=C(O)c1ccc2c(c1)OCCCO2 | > 4 mM (inactive)
15 | COC(=O)C[C@@H]1C2(C)C(=O)[C@@H](CC3=C4CC(=O)O[C@@H](c5ccoc5)[C@]4(C)CCC32)[C@H](OC(C)=O)C1(C)C (some centres undefined) | > 4 mM (inactive)
16 | C=CC(C1=CC(=O)C(OC)=CC1=O)c1ccccc1 (centres undefined) | > 4 mM (inactive)
17 | OC12CC3CC(CC(C3)C1)C2 | > 4 mM (inactive)
18 | COc1ccc(-c2nc3nc(C)cc(C)n3n2)cc1 | > 4 mM (inactive)
19 | CC1CCN(S(=O)(=O)N(C)C)CC1 | > 4 mM (inactive)
20 | COc1ccc(NC(=O)C2CC(=O)N=C(N)S2)cc1 (centres undefined) | > 4 mM (inactive)
21 | NC1=NC(=O)/C(=C\c2ccccc2)S1 | > 4 mM (inactive)

Row | SMILES | Kd
22 | CN1CCn2c1nc(N1CCOCC1)nc2=O | > 4 mM (inactive)
23 | Clc1ccccc1OCc1nc(-c2ccncc2)no1 | > 4 mM (inactive)
24 | NC(=O)N1CCc2ccccc21 | > 4 mM (inactive)
25 | O=C(NCc1ccccc1F)c1cccs1 | > 4 mM (inactive)
26 | O=c1[nH]cc(NCc2ccco2)c(=O)[nH]1 | > 4 mM (inactive)
27 | O=C1C2CCCCC2C(=O)N1Cc1cccnc1 (centres undefined) | > 4 mM (inactive)
28 | Cc1ccc(C(C)C)cc2c(C)ccc1-2 | > 4 mM (inactive)
29 | Cc1ccc(-c2c(C)n([O-])c(C)c(C)[n+]2=O)cc1 | > 4 mM (inactive)
30 | CC1(C)NC(=O)N(CCOc2ccc3c(c2)CCC3)C1=O | > 4 mM (inactive)
31 | CC(C)CCCC(C)[C@H]1CCC2C3CC[C@@H]4C[C@H](O)CC[C@]4(C)C3CC[C@@]21C (some centres undefined) | > 4 mM (inactive)
32 | Cc1cc(C)n(S(=O)(=O)c2ccc(C(C)(C)C)cc2)n1 | > 4 mM (inactive)
33 | Cn1nnc2cc(C(=O)Nc3cccnc3)ccc21 | > 4 mM (inactive)
34 | NCc1ccc(-c2ccccn2)s1 | > 4 mM (inactive)
35 | NC(=O)Nc1cccc(C(F)(F)F)c1 | > 4 mM (inactive)
36 | O=C1C2C3C=CC(C3)C2C(=O)N1c1cccnc1 (centres undefined) | > 4 mM (inactive)
37 | O=C(O)c1ccc(NC(=O)c2cccs2)cc1 | > 4 mM (inactive)
38 | NC(=S)N1CCC(c2ccccc2)=N1 | > 4 mM (inactive)
39 | CCc1c(C(=O)N2CCOCC2)csc1C | > 4 mM (inactive)
40 | Cn1cc(Cl)c(C(=O)Nc2ccncc2)n1 | > 4 mM (inactive)
41 | COc1cccc(/C=N/N=C2/NC(=O)CS2)c1 | > 4 mM (inactive)
42 | N[C@@H](Cc1cc(I)c(Oc2cc(I)c(O)c(I)c2)c(I)c1)C(=O)O | > 4 mM (inactive)

Row | SMILES | Kd
43 | CSc1nc(NC(C)C)nc(N2CCOCC2)n1 | > 4 mM (inactive)
44 | O=C(O)CS(=O)(=O)c1ccccc1[N+](=O)[O-] | > 4 mM (inactive)
45 | O=C(Oc1ccc2c(c1)CCC2)N1CCOCC1 | > 4 mM (inactive)
46 | CC(C)n1c(Nn2cnnc2)nc2ccccc21 | > 4 mM (inactive)
47 | O=c1c2c(nc3nc(COc4ccccc4)[nH]n13)CCC2 | > 4 mM (inactive)
48 | O=C(Nc1nncs1)C1(c2ccccc2)CCCC1 | > 4 mM (inactive)
49 | C[C@@H]1CC[C@@]23CCC4(C)[C@@](C=CC5[C@@]6(C)CC[C@H](O)C(C)(C)C6CC[C@]54C)(OC2=O)C3[C@H]1C (some centres undefined) | > 4 mM (inactive)
50 | O=C1C(=O)N(CNc2ncccn2)c2ccccc21 | > 4 mM (inactive)
51 | C=C(C)[C@H]1Cc2c(ccc3c2O[C@@H]2COc4cc(OC)c(OC)cc4[C@@H]2C3=O)O1 | > 4 mM (inactive)
52 | COC[C@]12CN(C=O)C3[C@@H]4[C@H](OC)C1[C@]3(C1CC3(O)C(OC)C(O)C4(OC(C)=O)C1C3OC(=O)c1ccccc1)[C@@H](OC)C[C@H]2O (some centres undefined) | > 4 mM (inactive)
53 | COc1cc(/C=C/C(=O)O)ccc1O | > 4 mM (inactive)
54 | OCC(O)C(O)C(O)CO (centres undefined) | > 4 mM (inactive)
55 | Cc1c(CO)cnn1-c1ccccc1 | > 4 mM (inactive)
56 | Cn1c(=O)[nH]c2nc[nH]c2c1=O | > 4 mM (inactive)
57 | O=C(O)c1cccc(CSc2ncccn2)c1 | > 4 mM (inactive)
58 | Nc1ccnc(C(=O)O)c1 | > 4 mM (inactive)
59 | COc1ccc(-c2cn[nH]c2N)c(OC)c1 | > 4 mM (inactive)
60 | O=c1cc(-c2ccccc2)oc2c(O)c(O)ccc12 | > 4 mM (inactive)
61 | O=S1(=O)CCC(N2CCCCC2)C1 (centres undefined) | > 4 mM (inactive)
62 | CC1(O)CC2C=CC1C2 (centres undefined) | > 4 mM (inactive)
63 | COc1cc2c(cc1OC)C(C)NCC2 (centres undefined) | > 4 mM (inactive)

Row | SMILES | Kd
64 | O=c1c2ccccc2[nH]c2ncccc12 | > 4 mM (inactive)
65 | Nc1ncc2[nH]cnc2n1 | > 4 mM (inactive)
66 | Cc1cc(NC(=O)CSc2ccnc(=O)[nH]2)no1 | > 4 mM (inactive)
67 | COc1cc(C)c(S(=O)(=O)N2CCN(C)CC2)cc1C | > 4 mM (inactive)
68 | CC(=O)O[C@@H]1CC2C(C)(C)[C@H](O)C=C[C@]2(C)C2CC[C@@]3(C)[C@H](c4ccoc4)OC(=O)C4OC43[C@@]21C (some centres undefined) | > 4 mM (inactive)
69 | CCCCCC1C(=O)CCC1CC(=O)O (centres undefined) | > 4 mM (inactive)
70 | c1ccc(NCc2nc(-c3ccccc3)no2)cc1 | > 4 mM (inactive)
71 | Nc1nc(SCC(=O)c2ccc([N+](=O)[O-])cc2)n[nH]1 | > 4 mM (inactive)
72 | S=C(NCc1ccco1)NN1CCOCC1 | > 4 mM (inactive)
73 | COc1cc2c(c(OC)c1OC)-c1ccc(OC)c(=O)cc1[C@@H](NC(C)=O)CC2 | > 4 mM (inactive)
74 | CNC(=O)C(=O)Nc1c(C)cccc1C | > 4 mM (inactive)
75 | O=C(O)c1ccc(-c2cccs2)s1 | > 4 mM (inactive)
76 | Nc1ccc2c(c1)COc1ccccc1O2 | > 4 mM (inactive)
77 | Cc1sc2nc[nH]c(=S)c2c1C | > 4 mM (inactive)
78 | COC(=O)Nc1nc2c(s1)CCCC2 | > 4 mM (inactive)
79 | COc1cc(C(=S)N2CCOCC2)ccc1O | > 4 mM (inactive)
80 | NC(=O)C1CCN(C(=O)c2ccccc2)CC1 | > 4 mM (inactive)
81 | Cn1cnnc1SCCCNC(=O)Nc1ncccn1 | > 4 mM (inactive)
82 | Cc1cc(C(=O)N2CCC3(CC2)OCCO3)cs1 | > 4 mM (inactive)
83 | O=[N+]([O-])c1cccc2c1nnn2C(CO)OCCO (centres undefined) | > 4 mM (inactive)
84 | c1ccc(Cc2nnc(-c3ccccc3)o2)cc1 | > 4 mM (inactive)
